{
  "source": "patent US20070270462A1",
  "about": "“8-hydroxyquinoline compounds for treating a polyglutamine (polyQ)-expansion disease” (priority 2005, published 2007)",
  "key": {"R6/2 mice": {"tested_on": "R6/2 mice", "assay": "Fasting blood glucose in R6/2 mice", "assay_type": "in vivo, mouse", "conditions": "11-week old R6/2 mice after 8 weeks of CQ treatment, mean ± s.e.m.", "procedure": "A colony of transgenic mice strain R6/2 that is heterozygous for htt exon1 (containing 145 CAG repeats) was maintained, with founders originating and available from The Jackson Laboratory (Bar Harbor, Me., USA). Male transgenic R6/2 mice were bred with background strain (B6CBAFI/J) females. Genotyping was done according to Hockly et al, Brain Res Bull 61, 469-479, 2003. CQ in water was orally administered to mice at 30 mg/kg/day starting at 3 weeks of age and continued until the mice were deceased or sacrificed for tissues. Littermate R6/2 mice were gavaged with water vehicle alone. At the end of CQ treatment mice were anesthetized and transcardially perfused with PBS followed by 4% v/v paraformaldehyde. Blood glucose levels were determined after at least 8 hrs of fasting in 11-week old mice (n=6 for wild-type, n=4 for vehicle-treated R6/2, n=6 for CQ-treated R6/2 littermates) using a 2300 STAT Plus glucose analyzer (YSI, Yellowsonte, Ohio, USA). Fasting blood insulin levels in animals fasted for 8 hrs were measured using an Ultra Sensitive Rat Insulin ELISA Kit (Crystal Chem, Inc., Downers Grove, Ill., USA) according to manufacturer's instructions.\nConsistent with the blood glucose level was a reciprocal change in blood insulin levels.\nData are mean+s.e.m. n≧4 for each treatment group. *P<0.0004 for glucose, **P=0.0065 for insulin levels comparing vehicle and CQ-treated groups."}, "YAC72 mice": {"tested_on": "YAC72 mice", "assay_type": "in vivo", "excerpt": "Lower dosages need to be investigated to determine if such doses improve the effect. […] Moreover, since the drug is given as a single daily dose in a water suspension, it is possible that the window of time in which the blood levels are therapeutic may be small, perhaps only a few hours a day. To address these issues, it is proposed to use the R6/2 short term model for a dose-response study and then examine the effects of treatment on the longer term, milder YAC72 model. YAC72 animals carry a portion of a yeast artificial chromosome (YAC) bearing a full-length human htt gene (including the promoter) that is modified with a 72 CAG repeat expansion in exon 1. […]\nCQ is delivered blended into food pellets with vitamin B12 supplementation. […] In addition, it is determined what is the average rate of consumption and fluctuations in consumption rate through the course of the day. These parameters are measured periodically in test subjects as well, to allow adjustment of dosing for body weight and food intake. […] Animals are evaluated for a variety of parameters including clasping, rotarod performance, body weight, and survival, and animals are sacrificed at 12 weeks for western and immunohistochemical analysis of huntingtin fragment accumulation and striatal atrophy. […]"}, "Htt exon1-Q103-egfp": {"tested_on": "Htt exon1-Q103-egfp", "assay": "Pulse-chase assay of Htt exon1-Q103-egfp turnover", "assay_type": "cell-based", "conditions": "HEK293 cells, 4 μM CQ", "procedure": "HEK293 cells at 90% confluence on 100 mm plates coated with poly-D-lysine (0.1 μg/μl) were transfected for 4 hr in Opti-MEM medium before replacement of the medium with MEM supplemented with 10% v/v FBS. After another 5 hr incubation, cells were trypsinized and replated in two wells of a 6-well plate, then incubated for another 14 hr at 37° C. The medium was replaced with methionine-free MEM medium supplemented with 5% v/v FBS, and cells incubated for 1.5 hr with 4 μM of CQ or DMSO vehicle added during the last 30 min of incubation. One mCi of Smethionine (Amersham Biosciences, Piscataway, N.J.) in 12 ml of methionine-free MEM was prepared as a pulse stock medium. Cells were pulsed for 10 min by replacing the medium with 1 ml of the pulse stock medium. At different time points, cells were washed twice with ice-cold PBS and lysed in 1 ml of IP lysis buffer (50 mM Tris-HCl, pH 7.5, 150 mM NaCl, 1% v/v NP-40, 0.5% v/v sodium deoxycholate, 1 tab mini-complete protease inhibitor/10 ml buffer). Cells were harvested by scraping, placed in 1.5 ml microcentrifuge tube, and lysed with constant agitation at 4° C. for at least 30 min before immunoprecipitation of the Htt^exon1-Q103-egfp protein using anti-polyglutamine antibody and protein G agarose beads (Roche, Indianapolis, Ind., USA). Assays were performed at least three times. […]"}},
  "data": [
    {"smiles": "Oc1c(I)cc(Cl)c2cccnc12", "note": "[CQ, 5-chloro-7-iodo-8-hydroxy-quinoline]", "values": [
      {"measurement": "fasting blood glucose level", "setting": "R6/2 mice", "value": "4.1 ± 0.3", "unit": "mM"},
      {"measurement": "behavioral and pathologic features", "setting": "YAC72 mice; YAC72 mice, chronic CQ with B12 supplementation", "value": "significantly mitigate the behavioral and pathologic features"},
      {"measurement": "tolerability of chronic CQ administration", "setting": "YAC72 mice; mouse, in vivo", "value": "well tolerated"},
      {"measurement": "rates of Q103-egfp degradation in the presence of CQ", "setting": "Htt exon1-Q103-egfp", "value": "No significant differences"}
    ]}
  ]
}
